Measured values: ChEMBL document CHEMBL3822432, “Antibacterial and anticancer activity of a series of novel peptides incorporating cyclic tetra-substituted C(α) amino acids” (Bioorg Med Chem, 2016)
pIC50: −log10 of the molar value. ≈ marks a conversion by molar mass, not a printed value. Non-standard residues stand in square brackets, D forms with d. Residues, ends and D or L forms follow the SMILES beside them. ξ: configuration not given here. Ac6c = NC1(C(=O)O)CCCCC1; ξOrn = NCCCC(N)C(=O)O

Columns and labels:
[1] = Antibacterial activity against carbapenem-resistant Klebsiella pneumoniae K6 ATCC 700603 by two fold serial dilution method; format: functional, Klebsiella pneumoniae 700603
[2] = Antiproliferative activity against human PC3 cells after 72 hrs by Celltiter-Glo luminescent cell viability assay; format: functional, cell-based; details: PC-3, 72 h
Acinetobacter baumannii [3] = assay: Potency index, ratio of Ac-GF-Tic-Oic-GK-Tic-Oic-GF-Tic-Oic-GK-Tic-KKKK-CONH2 MIC to compound MIC for Acinetobacter baumannii B5W71 ATCC 15149; format: functional
Staphylococcus aureus [4] = assay: Antibacterial activity against methicillin-resistant Staphylococcus aureus USA 300 NRS 384 by two fold serial dilution method; format: functional
[5] = Antibacterial activity against Francisella tularensis SCHU S4 NR-643 by two fold serial dilution method; format: functional
Enterococcus faecium = assay: Potency index, ratio of Ac-GF-Tic-Oic-GK-Tic-Oic-GF-Tic-Oic-GK-Tic-KKKK-CONH2 MIC to compound MIC for Enterococcus faecium; format: functional
[6] = Antiproliferative activity against human MIAPaCa2 cells after 72 hrs by Celltiter-Glo luminescent cell viability assay; format: functional, cell-based; details: MIA PaCa-2, 72 h
[7] = Antiproliferative activity against human IGROV1 cells after 72 hrs by Celltiter-Glo luminescent cell viability assay; format: functional, cell-based; details: IGROV-1, 72 h
[8] = Antibacterial activity against Bacillus anthracis Ames NR-3838 by two fold serial dilution method; format: functional, Bacillus anthracis str. Ames
Neisseria gonorrhoeae = assay: Antibacterial activity against Neisseria gonorrhoeae F-18 ATCC 49226 by two fold serial dilution method; format: functional
Streptococcus pneumoniae = assay: Antibacterial activity against Streptococcus pneumoniae 262 ATCC 49619 by two fold serial dilution method; format: functional
[9] = test system: Burkholderia pseudomallei; assay: Antibacterial activity against Burkholderia pseudomallei AHS 1 NCTC 8016 by two fold serial dilution method; format: functional
[10] = Antiproliferative activity against human UACC62 cells after 72 hrs by Celltiter-Glo luminescent cell viability assay; format: functional, cell-based; details: UACC-62, 72 h
A549 = assay: Antiproliferative activity against human A549 cells after 72 hrs by Celltiter-Glo luminescent cell viability assay; format: functional, cell-based; details: A549, 72 h
[11] = Antibacterial activity against Yersinia pestis CO92 NR641 by two fold serial dilution method; format: functional
RL = assay: Antiproliferative activity against human RL cells after 72 hrs by Celltiter-Glo luminescent cell viability assay; format: functional, cell-based
CFPAC-1 = assay: Antiproliferative activity against human CFPAC-1 cells after 72 hrs by Celltiter-Glo luminescent cell viability assay; format: functional, cell-based; details: CFPAC-1, 72 h
Pseudomonas aeruginosa [12] = assay: Potency index, ratio of Ac-GF-Tic-Oic-GK-Tic-Oic-GF-Tic-Oic-GK-Tic-KKKK-CONH2 MIC to compound MIC for Pseudomonas aeruginosa Boston 41501 ATCC 27853; format: functional
Enterococcus faecalis = assay: Antibacterial activity against Enterococcus faecalis Portland ATCC 29212 by two fold serial dilution method; format: functional; details: ATCC 29212 Portland
[13] = Antiproliferative activity against human COLO205 cells after 72 hrs by Celltiter-Glo luminescent cell viability assay; format: functional, cell-based; details: COLO 205, 72 h
Pseudomonas aeruginosa [14] = assay: Antibacterial activity against Pseudomonas aeruginosa Boston 41501 ATCC 27853 by two fold serial dilution method; format: functional
MCF7 = assay: Antiproliferative activity against human MCF7 cells after 72 hrs by Celltiter-Glo luminescent cell viability assay; format: functional, cell-based; details: MCF7, 72 h
NCI-H69 = assay: Antiproliferative activity against human NCI-H69 cells after 72 hrs by Celltiter-Glo luminescent cell viability assay; format: functional, cell-based; details: NCI-H69, 72 h
[15] = Antibacterial activity against Salmonella enterica LT2 Typhimurium ATCC 15277 by two fold serial dilution method; format: functional
Acinetobacter baumannii [16] = assay: Antibacterial activity against Acinetobacter baumannii B5W71 ATCC 15149 by two fold serial dilution method; format: functional
[17] = Antiproliferative activity against human DLD1 cells after 72 hrs by Celltiter-Glo luminescent cell viability assay; format: functional, cell-based; details: DLD-1, 72 h
[18] = test system: Mycobacterium tuberculosis; assay: Antibacterial activity against Mycobacterium tuberculosis H37Ra ATCC 2517 by two fold serial dilution method; format: functional
Klebsiella aerogenes [19] = assay: Potency index, ratio of Ac-GF-Tic-Oic-GK-Tic-Oic-GF-Tic-Oic-GK-Tic-KKKK-CONH2 MIC to compound MIC for carbapenem-resistant Enterobacter aerogenes NCDC819-56 ATCC 13048; format: functional; details: pooled result: one value given for 3 cell lines, strains, targets or settings
A498 = assay: Antiproliferative activity against human A498 cells after 72 hrs by Celltiter-Glo luminescent cell viability assay; format: functional, cell-based; details: A498, 72 h
Staphylococcus aureus [20] = assay: Antibacterial activity against Staphylococcus aureus Seattle 1945 ATCC 25923 by two fold serial dilution method; format: functional
Klebsiella aerogenes [21] = assay: Antibacterial activity against carbapenem-resistant Enterobacter aerogenes NCDC819-56 ATCC 13048 by two fold serial dilution method; format: functional
[22] = Antibacterial activity against Clostridium difficile VIP 10463 ATCC 43255 by two fold serial dilution method; format: functional, Clostridium difficile ATCC 43255; details: Clostridioides difficile

| Compound | MIC [1] [µM] | pIC50 [2] | MIC (Staphylococcus aureus [4]) [µM] | MIC [5] [µM] | pIC50 [6] | pIC50 [7] | MIC [8] [µM] | MIC (Neisseria gonorrhoeae) [µM] | MIC (Streptococcus pneumoniae) [µM] | MIC [9] [µM] | pIC50 [10] | pIC50 (A549) | MIC [11] [µM] | pIC50 (RL) | pIC50 (CFPAC-1) | MIC (Enterococcus faecalis) [µM] | pIC50 [13] | MIC (Pseudomonas aeruginosa [14]) [µM] | pIC50 (MCF7) | pIC50 (NCI-H69) | other results |
| --- | --- | --- | --- | --- | --- | --- | --- | --- | --- | --- | --- | --- | --- | --- | --- | --- | --- | --- | --- | --- | --- |
| CC(=O)NCC(=O)N[C@H](Cc1ccccc1)C(=O)NC1(C(=O)NCC(=O)N2C(C(=O)N[C@@H](CCCCN)C(=O)NC3(C(=O)NCC(=O)N4C(C(=O)N[C@@H](Cc5ccccc5)C(=O)NC5(C(=O)NCC(=O)N6C(C(=O)NCC(=O)N[C@@H](CCCCN)C(=O)N7C(C(=O)N[C@H](CCCCN)C(=O)N[C@H](CCCCN)C(=O)N[C@H](CCCCN)C(=O)N[C@H](CCCCN)C(N)=O)CC8CCCCC87)CC7CCCCC76)CCCCC5)CC5CCCCC54)CCCCC3)CC3CCCCC32)CCCCC1 (stereo in doubt) | > 42 | < 5.12 | > 42 | 20.9 (≈ 50 µg/mL) | < 5.12 | < 5.12 | 20.9 (≈ 50 µg/mL) | 20.9 (≈ 50 µg/mL) | > 42 | > 42 | < 5.12 | < 5.12 | > 42 | 5.17 | < 5.12 | > 42 | < 5.12 | 20.9 (≈ 50 µg/mL) | < 5.12 | < 5.12 | Ratio (Acinetobacter baumannii [3]): 8.372; Ratio (Enterococcus faecium): 4.2; Ratio (Pseudomonas aeruginosa [12]): 0.5232; MIC [15]: 41.9 µM (≈ 100 µg/mL); MIC (Acinetobacter baumannii [16]): 20.9 µM (≈ 50 µg/mL); pIC50 [17]: < 5.12; MIC [18]: 20.9 µM (≈ 50 µg/mL); Ratio (Klebsiella aerogenes [19]): 1.05; pIC50 (A498): < 5.12; MIC (Staphylococcus aureus [20]): > 42 µM; MIC (Klebsiella aerogenes [21]): > 42 µM; MIC [22]: 2.62 µM (≈ 6.26 µg/mL) |
| CC(=O)NCC(=O)N[C@@H](Cc1ccccc1)C(=O)NC1(C(=O)NCC(=O)N2Cc3ccccc3CC2C(=O)N[C@H](CCCCN)C(=O)NC2(C(=O)NCC(=O)N3Cc4ccccc4CC3C(=O)N[C@H](Cc3ccccc3)C(=O)NC3(C(=O)NCC(=O)N4Cc5ccccc5CC4C(=O)NCC(=O)N[C@H](CCCCN)C(=O)N4Cc5ccccc5CC4C(=O)N[C@H](CCCCN)C(=O)N[C@H](CCCCN)C(=O)N[C@H](CCCCN)C(=O)N[C@H](CCCCN)C(N)=O)CCCCC3)CCCCC2)CCCCC1 (some centres not stated) | > 43 | < 5.12 | > 43 | 20.7 (≈ 50 µg/mL) | < 5.12 | < 5.12 | 10.3 (≈ 25 µg/mL) | 41.3 (≈ 100 µg/mL) | > 43 | > 43 | < 5.12 | < 5.12 | > 43 | 5.17 | < 5.12 | > 43 | < 5.12 | 10.3 (≈ 25 µg/mL) | < 5.12 | < 5.12 | Ratio (Acinetobacter baumannii [3]): 17.2; Ratio (Enterococcus faecium): 4.3; Ratio (Pseudomonas aeruginosa [12]): 0.2582; MIC [15]: 5.17 µM (≈ 12.5 µg/mL); MIC (Acinetobacter baumannii [16]): > 45 µM; pIC50 [17]: < 5.12; MIC [18]: 10.3 µM (≈ 25 µg/mL); Ratio (Klebsiella aerogenes [19]): 1.075; pIC50 (A498): < 5.12; MIC (Staphylococcus aureus [20]): > 43 µM; MIC (Klebsiella aerogenes [21]): > 43 µM; MIC [22]: 2.58 µM (≈ 6.24 µg/mL) |
| CC(=O)NCC(=O)N[C@@H](Cc1ccccc1)C(=O)NC1(C(=O)NCC(=O)NC2(C(=O)NC(CCCN)C(=O)NC3(C(=O)NCC(=O)NC4(C(=O)N[C@@H](Cc5ccccc5)C(=O)NC5(C(=O)NCC(=O)NC6(C(=O)NCC(=O)NC(CCCN)C(=O)NC7(C(=O)NC(CCCN)C(=O)NC(CCCN)C(=O)NC(CCCN)C(=O)NC(CCCN)C(N)=O)CCCCC7)CCCCC6)CCCCC5)CCCCC4)CCCCC3)CCCCC2)CCCCC1 (some centres not stated) (Ac-GF[Ac6c]G[Ac6c][ξOrn][Ac6c]G[Ac6c]F[Ac6c]G[Ac6c]G[ξOrn][Ac6c][ξOrn][ξOrn][ξOrn][ξOrn]-NH2) | 22.8 (≈ 50 µg/mL) | 5.12 | 22.8 (≈ 50 µg/mL) | 45.5 (≈ 100 µg/mL) | 5.44 | 5.27 | 2.84 (≈ 6.25 µg/mL) | 2.84 (≈ 6.25 µg/mL) | 45.5 (≈ 100 µg/mL) | > 45 | 5.51 | 5.19 | > 45 | 5.60 | 5.23 | 11.4 (≈ 25 µg/mL) | 5.49 | 1.42 (≈ 3.12 µg/mL) | 5.34 | 5.77 | MIC [15]: 2.84 µM (≈ 6.25 µg/mL); MIC (Acinetobacter baumannii [16]): 2.84 µM (≈ 6.25 µg/mL); pIC50 [17]: 5.21; MIC [18]: 11.4 µM (≈ 25 µg/mL); pIC50 (A498): 5.33; MIC (Staphylococcus aureus [20]): 5.67 µM (≈ 12.5 µg/mL); MIC (Klebsiella aerogenes [21]): 22.8 µM (≈ 50 µg/mL); MIC [22]: 5.67 µM (≈ 12.5 µg/mL) |
